Experimental data taken from the NIST ThermoML archive (doi:10.1021/je030226s).

How the values were obtained:
[1] = 101.32 kPa, Liquid
[2] = refractive index (Na D-line) (dimensionless); settings: 101.33 kPa, Liquid
[3] = xn = mol fraction of the nth substance listed; settings: 101.32 kPa, Liquid
[4] = refractive index (Na D-line) (dimensionless); xn = mol fraction of the nth substance listed; settings: 101.32 kPa, Liquid

CCCCCl [1-chlorobutane]
Settings | mass density, 288.15 K [kg/m3] | mass density, 298.15 K [kg/m3] | mass density, 308.15 K [kg/m3] | refractive index, 288.15 K | refractive index, 298.15 K | refractive index, 308.15 K | viscosity, 288.15 K [mPa·s] | viscosity, 298.15 K [mPa·s] | viscosity, 308.15 K [mPa·s]
[1] | 892.2 | 881 | 869.7 | – | – | – | 0.472 | 0.423 | 0.382
[2] | – | – | – | 1.4045 | 1.3993 | 1.3941 | – | – | –

CCCCCl [1-chlorobutane] + CO
Settings | mass density, 288.15 K [kg/m3] | mass density, 298.15 K [kg/m3] | mass density, 308.15 K [kg/m3] | refractive index, 288.15 K | refractive index, 298.15 K | refractive index, 308.15 K | viscosity, 288.15 K [mPa·s] | viscosity, 298.15 K [mPa·s] | viscosity, 308.15 K [mPa·s]
[3], x2 = 0 | 892.2 | 881 | 869.7 | – | – | – | 0.472 | 0.423 | 0.382
[3], x2 = 0.05 | 889.6 | 878.4 | 867.1 | – | – | – | 0.463 | 0.416 | 0.375
[3], x2 = 0.1 | 887.2 | 876.1 | 864.7 | – | – | – | 0.462 | 0.413 | 0.374
[3], x2 = 0.2 | 882.4 | 871.2 | 859.9 | – | – | – | 0.465 | 0.412 | 0.376
[3], x2 = 0.3 | 876.9 | 865.6 | 854.5 | – | – | – | 0.478 | 0.421 | 0.382
[3], x2 = 0.4 | 870.6 | 859.6 | 848.4 | – | – | – | 0.496 | 0.435 | 0.393
[3], x2 = 0.5 | 863.3 | 852.4 | 841.3 | – | – | – | 0.516 | 0.45 | 0.407
[3], x2 = 0.6 | 854.6 | 843.9 | 833 | – | – | – | 0.536 | 0.469 | 0.416
[3], x2 = 0.7 | 844.2 | 833.7 | 823.1 | – | – | – | 0.559 | 0.489 | 0.431
[3], x2 = 0.8 | 831.7 | 821.4 | 811 | – | – | – | 0.581 | 0.506 | 0.445
[3], x2 = 0.9 | 815.9 | 806 | 796 | – | – | – | 0.601 | 0.521 | 0.457
[3], x2 = 0.95 | 806.6 | 796.9 | 787.2 | – | – | – | 0.613 | 0.532 | 0.467
[4], x2 = 0 | – | – | – | 1.4045 | 1.3993 | 1.3941 | – | – | –
[4], x2 = 0.05 | – | – | – | 1.4032 | 1.398 | 1.3928 | – | – | –
[4], x2 = 0.1 | – | – | – | 1.4015 | 1.3964 | 1.3912 | – | – | –
[4], x2 = 0.2 | – | – | – | 1.3978 | 1.3927 | 1.3877 | – | – | –
[4], x2 = 0.3 | – | – | – | 1.3936 | 1.3885 | 1.3834 | – | – | –
[4], x2 = 0.4 | – | – | – | 1.3885 | 1.3835 | 1.3785 | – | – | –
[4], x2 = 0.5 | – | – | – | 1.3827 | 1.3778 | 1.3728 | – | – | –
[4], x2 = 0.6 | – | – | – | 1.3759 | 1.371 | 1.366 | – | – | –
[4], x2 = 0.7 | – | – | – | 1.3679 | 1.3628 | 1.3579 | – | – | –
[4], x2 = 0.8 | – | – | – | 1.3579 | 1.3529 | 1.3478 | – | – | –
[4], x2 = 0.9 | – | – | – | 1.3457 | 1.3413 | 1.3365 | – | – | –
[4], x2 = 0.95 | – | – | – | 1.3384 | 1.3342 | 1.3298 | – | – | –

CCCCO [butan-1-ol]
Settings | mass density, 288.15 K [kg/m3] | mass density, 298.15 K [kg/m3] | mass density, 308.15 K [kg/m3] | refractive index, 288.15 K | refractive index, 298.15 K | refractive index, 308.15 K | viscosity, 288.15 K [mPa·s] | viscosity, 298.15 K [mPa·s] | viscosity, 308.15 K [mPa·s]
[1] | 813.5 | 805.9 | 798.2 | – | – | – | 3.394 | 2.598 | 2.019
[2] | – | – | – | 1.401 | 1.3972 | 1.3932 | – | – | –

CCCCO [butan-1-ol] + CCCCCl
x1 = 1
Settings | mass density, 288.15 K [kg/m3] | mass density, 298.15 K [kg/m3] | mass density, 308.15 K [kg/m3] | refractive index, 288.15 K | refractive index, 298.15 K | refractive index, 308.15 K | viscosity, 288.15 K [mPa·s] | viscosity, 298.15 K [mPa·s] | viscosity, 308.15 K [mPa·s]
[3] | 813.5 | 805.9 | 798.2 | – | – | – | 3.394 | 2.598 | 2.019
[4] | – | – | – | 1.401 | 1.3972 | 1.3932 | – | – | –

CCO [ethanol]
Settings | mass density, 288.15 K [kg/m3] | mass density, 298.15 K [kg/m3] | mass density, 308.15 K [kg/m3] | refractive index, 288.15 K | refractive index, 298.15 K | refractive index, 308.15 K | viscosity, 288.15 K [mPa·s] | viscosity, 298.15 K [mPa·s] | viscosity, 308.15 K [mPa·s]
[1] | 793.8 | 785.2 | 776.6 | – | – | – | 1.317 | 1.085 | 0.902
[2] | – | – | – | 1.363 | 1.3591 | 1.355 | – | – | –

CCO [ethanol] + CCCCCl
x1 = 1
Settings | mass density, 288.15 K [kg/m3] | mass density, 298.15 K [kg/m3] | mass density, 308.15 K [kg/m3] | refractive index, 288.15 K | refractive index, 298.15 K | refractive index, 308.15 K | viscosity, 288.15 K [mPa·s] | viscosity, 298.15 K [mPa·s] | viscosity, 308.15 K [mPa·s]
[3] | 793.8 | 785.2 | 776.6 | – | – | – | 1.317 | 1.085 | 0.902
[4] | – | – | – | 1.363 | 1.3591 | 1.355 | – | – | –

CO [methanol]
Settings | mass density, 288.15 K [kg/m3] | mass density, 298.15 K [kg/m3] | mass density, 308.15 K [kg/m3] | refractive index, 288.15 K | refractive index, 298.15 K | refractive index, 308.15 K | viscosity, 288.15 K [mPa·s] | viscosity, 298.15 K [mPa·s] | viscosity, 308.15 K [mPa·s]
[1] | 796.1 | 786.6 | 777.2 | – | – | – | 0.627 | 0.543 | 0.473
[2] | – | – | – | 1.3303 | 1.3275 | 1.3254 | – | – | –

CO [methanol] + CCCCCl
x1 = 1
Settings | mass density, 288.15 K [kg/m3] | mass density, 298.15 K [kg/m3] | mass density, 308.15 K [kg/m3] | refractive index, 288.15 K | refractive index, 298.15 K | refractive index, 308.15 K | viscosity, 288.15 K [mPa·s] | viscosity, 298.15 K [mPa·s] | viscosity, 308.15 K [mPa·s]
[3] | 796.1 | 786.6 | 777.2 | – | – | – | 0.627 | 0.543 | 0.473
[4] | – | – | – | 1.3303 | 1.3275 | 1.3254 | – | – | –

CCCO [propan-1-ol]
Settings | mass density, 288.15 K [kg/m3] | mass density, 298.15 K [kg/m3] | mass density, 308.15 K [kg/m3] | refractive index, 288.15 K | refractive index, 298.15 K | refractive index, 308.15 K | viscosity, 288.15 K [mPa·s] | viscosity, 298.15 K [mPa·s] | viscosity, 308.15 K [mPa·s]
[1] | 807.6 | 799.6 | 791.5 | – | – | – | 2.504 | 1.958 | 1.548
[2] | – | – | – | 1.3869 | 1.3829 | 1.3789 | – | – | –

CCCO [propan-1-ol] + CCCCCl
x1 = 1
Settings | mass density, 288.15 K [kg/m3] | mass density, 298.15 K [kg/m3] | mass density, 308.15 K [kg/m3] | refractive index, 288.15 K | refractive index, 298.15 K | refractive index, 308.15 K | viscosity, 288.15 K [mPa·s] | viscosity, 298.15 K [mPa·s] | viscosity, 308.15 K [mPa·s]
[3] | 807.6 | 799.6 | 791.5 | – | – | – | 2.504 | 1.958 | 1.548
[4] | – | – | – | 1.3869 | 1.3829 | 1.3789 | – | – | –
